Measurements from patent publication EP2118065B1, “Substituted 1H-benz[de]isoquinoline-1,3-diones” (priority 2007, dated 2008).
Read-outs that look alike come from different tables or passages of the source.

Assays:
[1] = test system: U-937 lymphoma; experiment: MTT in vitro cytotoxicity; settings: read-out: IC50 value Lymphoma U-937
[2] = test system: HL-60 human leukemia; experiment: MTT in vitro cytotoxicity; settings: read-out: IC50 value Leukemia HL-60
[3] = test system: S-180; experiment: In vivo anticancer activity: increase in median survival time; design: species or system Swiss albino male mice
[4] = test system: S-180 cells; experiment: 3H-thymidine and 3H-uridine incorporation in vitro (DNA and RNA synthesis)
[5] = test system: HL-60 cells; experiment: Annexin V-FITC/PI flow cytometric analysis of apoptosis; type: cell-based, human; settings: 24 h
Protocol: Induction of apoptosis in vitro by Compound 3b and 3f was further determined in HL-60 cells by flow cytometric assay using an Annexin V-FITC Apoptosis Detection Kit (BD Biosciences Pharmingen, San Diego, USA). Camptothecin was included in the study for comparison. Exponentially growing HL-60 cells in complete RPMI-1640 media (100 µl of 5×10^6) were plated in six well plates. 10 µl of each Compound in DMSO (5 and 10 µM concentrations) was added to the wells followed by the addition of required media (total volume 1ml). Plates were incubated at 37°C for 24 h. The cells were centrifuged at room temperature at 1500 rpm for 5 min. The pellet was washed twice with cold PBS and was re-suspended in the binding buffer (1X, 100µl) provided in the Kit. The cells were stained with Annexin V-FITC (5 µl) and Propidium Iodide [PI] (5µl) and incubated for 15 min in the dark at 25°C. Next 400µl of binding buffer was added to each tube and analyzed on a FACScan flow cytometer (Becton Dickinson, Mountainview, CA) using Cell Quest software. Cells stained with both Annexin-V-FITC and PI, containing DMSO as vehicle was used as stained control. Cells that were annexin^+ /Pr [Lower right quadrant (LR)] and annexin^+/PI^+ [Upper right quadrant (UR)] were considered as early apoptotic and late apoptotic respectively.

[6] = test system: SW-620; experiment: SRB in vitro cytotoxicity, human tumor cell line; type: cell-based; settings: 10^-5 M, Colon: SW-620, read-out: growth inhibition
Protocol: (§1) Compounds 3a-g were screened by sulforhodamine-B (SRB) semi-automated assay in a battery of cell lines. […] A., et. al. (1991); Feasibility high flux anticancer screen utilizing diverse panel of human tumor cell lines in culture. J Natl Cancer Inst. 83, 757-766]. Each compound was tested in triplicate sets of experiments at 10^-4 to 10^-6 M concentrations (Table 4).
(§2) A stock solution of 2 x 10^-2M was prepared in DMSO. The stock solutions were serially diluted to obtain working test solutions with complete growth medium (RPMI-1640 medium with 2mM glutamine, 100µg/ml streptomycin, pH 7.4, sterilized by filtration and supplemented with 10% fetal bovine serum and 100 units/ml penicillin before use) containing 50 µg/ml of gentamycin to obtain working test solutions. The working test solutions were not filtered/ sterilized but microbial contamination was controlled by addition of gentamycin in complete growth medium used for dilution of stock solutions to prepare working test solutions.
(§3) In vitro cytotoxicity against human cancer cell lines was determined^2 [Monk. A., et. al. (1991); Feasibility high flux anticancer screen utilizing diverse panel of human tumor cell lines in culture. J Natl Cancer Inst. 83, 757-766] using 96-well tissue culture plates. The cells were grown in tissue culture flasks in complete growth medium at 37°C in an atmosphere of 5% CO2 and 95% relative humidity in a carbon dioxide incubator. The cell suspension of required cell density (1-2 lakhs/ml) depending on the mass doubling time of cell lines was prepared in complete growth medium for determination of cytotoxicity. The aliquots of 100 µl of cell suspension were added to each well on a 96-well tissue culture plate. The blank wells contained complete medium in place of cell suspension. Simultaneously, control experiments with positive controls containing known anticancer agents were carried out. Cells were incubated for 24 hr.
(§4) The test materials (100 µl in each well) were added after 24-hours to the wells containing cell suspension and blank wells. The cells were allowed to grow in presence of test material by further incubating the plates for 48 hours. At the end of incubation period the cell growth was stopped by gently layering trichloroacetic acid (50% TCA, 50µl/well) on top of the medium in all the wells. The plates were incubated at 4°C for 1 hr. The plates were washed five times with distilled water to remove TCA, growth medium, low molecular weight metabolites, serum proteins etc. and air-dried.
(§5) The cell growth was measured^3 [Skehan, P, Storeng, R Scudiero, D, Monks, A, Mcmahon, J, Vistica, D, Warren, J.T., Bokesch, H., Kenney, S., Boyd, M.R. (1990). New colorimetric cytotoxicity assay for anti-cancer drug screening. J Natl Cancer Inst. 82: 1107-12] by staining with Sulphorhodamine B. Sulphorhodamine B (SRB, 0.4% in 1% acetic acid, 100 µl/well) was added to each well and plates were allowed to stand at room temperature for 30 minutes. The plates were washed with 1% acetic acid four times and then dried. Tris-HCl buffer (0.01 M, pH 10.5, 100 µl/well) was added to each well to solublise the dye. The plates were shaken gently for 10 minutes on a shaker and the optical density was recorded on ELISA reader at 540 nm. The cell growth was determined by subtracting mean OD value of respective blank from the mean OD value of experimental set. Percent growth in presence of test material was calculated considering the growth in absence of any test material as 100% and in turn percent growth inhibition in presence of test material was calculated. All the experiments were carried out in quadruplicate.

[7] = test system: HCT-15; experiment: SRB in vitro cytotoxicity, human tumor cell line; type: cell-based; settings: 10^-5 M, Colon: HCT-15, read-out: growth inhibition
Protocol: as §1, §2, §3, §4, §5

[8] = test system: IMR-32; experiment: SRB in vitro cytotoxicity, human tumor cell line; type: cell-based; settings: 10^-5 M, Neuroblastoma: IMR-32, read-out: growth inhibition
Protocol: as §1, §2, §3, §4, §5

[9] = test system: 502713; experiment: SRB in vitro cytotoxicity, human tumor cell line; type: cell-based; settings: 10^-5 M, Colon: 502713, read-out: growth inhibition
Protocol: as §1, §2, §3, §4, §5

[10] = test system: MOLT-4 cells; experiment: Annexin V-FITC/PI flow cytometric analysis of apoptosis; type: cell-based, Human; settings: 5µM, 6 hrs
Protocol: Events of apoptosis were analyzed using Annexin V-FITC Apoptosis Detection Kit (A 2214 Sigma Aldrich, USA). Human leukemia Cells (MOLT-4, 1x10^6 cells/ml) in 6-well plate were treated with Compound 3f (3 and 5µg/ml), camptothecin (5µM) and incubated for 6 hrs. After incubation, the cells were centrifuged, rinsed with PBS twice and re-suspended in binding buffer (10 mM HEPES/NaOH, pH 7.5 containing 0.14M NaCl and 25 mM CaCl2). An aliquot (500 µl) of suspension was stained with of Annexin V-FITC (5 µl) and Propidium Iodide (10 µl). The cells were stored for 10 minutes at room temperature in the dark and then analyzed by BD-LSR flow cytometer (Becton Dickinson, USA) at two wavelengths to measure fluorescence for of Annexin V & PI binding at 515 and 639 nm.

[11] = test system: MOLT-4 cells; experiment: Flow cytometric DNA cell cycle analysis (sub-G1 fraction); type: cell-based, Human; settings: camptothecin 1µM, 3 hrs
Protocol: Effect of DNA content by cell cycle phase distribution was assessed using MOLT-4 cells. […] The incubation period was 3 hrs in case of camptothecin and 24 hrs. in rest of the treatments. The cells were then washed twice with ice-cold PBS, harvested, fixed with ice-cold PBS in 70% ethanol, and stored at -20 °C for 30 min. After fixation, the cells were incubated with RNase A (0.1 mg/ml) at 37°C for 30 min, stained with propidium iodide (50 µg/ml) for 30 min on ice in dark, and then measured for DNA content using BD-LSR Flow cytometer (Becton Dickinson, USA) equipped with electronic doublet, discrimination capability using blue (488nm) excitation from argon laser. Data were collected in list mode on 10,000 events for FL2-A vs. FL2-W and analyzed using Mod Fit 2.0 software (Fig 4). […] The sub-G1 fractions for control and camptothecin were 0.64 (Fig. 4A) and 11.92 % (Fig. 4B).

[12] = S-180, 30 mg/kg i.p., 7 injns., days 1-7
[13] = S-180, 60 mg/kg i.p., 7 injns., days 1-7
[14] = S-180, 60 mg/kg i.p., 7 injns., days 5-11
[15] = S-180, 0.5 mg/kg i.p., 7 injns., days 1-7
[16] = S-180, 1 mg/kg i.p., 7 injns., days 1-7
[17] = S-180, 6 mg/kg i.p., 7 injns., days 1-7
[18] = S-180, 20 mg/kg i.p., 7 injns., days 1-7

N.N.[Cl][Pt][Cl] [Cis-Platinum]
IC50 ([1]; MTT, 96 h): 3.2 µM | IC50 ([2]; MTT, 96 h): 7 µM

O=C1c2cccc3cc([N+](=O)[O-])cc(c23)C(=O)N1CCCCl [Compound 3g, 5-Nitro-2-[3-(Chloropropyl)]-1H-benz[de]isoquinoline-1,3-dione]
MST [3, 12]: 25.5 days | T/C % [3, 12]: 106% | MST [3, 13]: 24.0 days | T/C % [3, 13]: 129% | MST [3, 14]: 25.0 days | T/C % [3, 14]: 104%

CN(C)CCN1C(=O)c2cccc3cc([N+](=O)[O-])cc(c23)C1=O [Mitonafide, reference compound]
inhibition at 8 µM ([4]; Mus musculus, S-180, read-out: DNA synthesis inhibition (3H-thymidine uptake)): 93% | RNA synthesis inhibition (3H-uridine uptake) ([4]; S-180 cells, 8 µM, 1 hr incubation, with respect to control): 92% | MST [3, 15]: 36.5 days | Survivors > 60 days [3, 15]: 1 | T/C % [3, 15]: 187% | MST [3, 16]: 25.0 days | T/C % [3, 16]: 128%

O=C1c2cccc3c([N+](=O)[O-])ccc(c23)C(=O)N1CCCl [Compound 3b, 6-Nitro-2-[2-(Chloroethyl)]-1H-benz[de]isoquinoline-1,3-dione]
early apoptotic cells (Annexin V^+/PI^-), LR ([5]; 5 µM): 4.5% | late apoptotic cells (Annexin V^+/PI^+), UR ([5]; 5 µM): 5.2% | total apoptotic cells (apoptotic cell population) ([5]; 5 µM): 9.7% | early apoptotic cells (Annexin V^+/PI^-), LR ([5]; 10 µM): 15.3% | late apoptotic cells (Annexin V^+/PI^+), UR ([5]; 10 µM): 33.5% | total apoptotic cells (apoptotic cell population) ([5]; 10 µM): 48.8% | IC50 ([1]; Homo sapiens, U-937, 96 h): 0.66 µM | inhibition at 10 µM [6]: > 50% | inhibition at 10 µM [7]: > 50% | inhibition at 10 µM [8]: > 50% | inhibition at 10 µM [9]: > 50% | IC50 ([2]; Homo sapiens, HL-60, 96 h): 0.8 µM | MST ([3]; S-180, 40 mg/kg i.p., 7 injns., days 1-7): 20.5 days | MST ([3]; S-180, 80 mg/kg i.p., 7 injns., days 1-7): 23.0 days

O=NN(CCCl)C(=O)NCCCl [BCNU, Bis (2-chloroethyl-nitrosourea)]
IC50 ([1]; MTT, 96 h): 12.3 µM | IC50 ([2]; MTT, 96 h): 30.5 µM

O=P1(N(CCCl)CCCl)NCCCO1 (stereo not shown) [Cyclophosphamide, reference compound]
MST [3, 17]: 33.0 days | T/C % [3, 17]: 143%

NC(=O)NO [Hydroxyurea]
IC50 ([1]; Homo sapiens, U-937, 96 h): 115 µM | IC50 ([2]; Homo sapiens, HL-60, 96 h): 204 µM

O=c1[nH]cc(F)c(=O)[nH]1 [Compound 5-FU, 5-fluorouracil, reference compound]
IC50 ([1]; Homo sapiens, U-937, 96 h): 4.7 µM | IC50 ([2]; Homo sapiens, HL-60, 96 h): 266 µM | MST [3, 18]: 53.5 days | Survivors > 60 days [3, 18]: 3 | T/C % [3, 18]: 233% | T/C % ([3]; mouse, in vivo): 233

CC[C@@]1(O)C(=O)OCc2c1cc1n(c2=O)Cc2cc3ccccc3nc2-1 [camptothecin, reference compound]
early apoptotic cells (Annexin V^+/PI^-), LR ([5]; 5 µM): 7.79% | late apoptotic cells (Annexin V^+/PI^+), UR ([5]; 5 µM): 5.46% | total apoptotic cells (apoptotic cell population) ([5]; 5 µM): 13.3% | early apoptotic cells (Annexin V^+/PI^-), LR ([5]; 10 µM): 10.52% | late apoptotic cells (Annexin V^+/PI^+), UR ([5]; 10 µM): 5.30% | total apoptotic cells (apoptotic cell population) ([5]; 10 µM): 15.8% | total apoptotic cells [10]: 8.83% | sub-G1 fraction [11]: 11.92%
